Measurements: US20120157433A1, “Heteroaryl Compounds as Kinase Inhibitors” (priority 2009, published 2012)

tested on: neointima formation; assay: not given; details: rats; cited from earlier work

| Structure (SMILES) | inhibition of neointima formation |
| --- | --- |
| COc1ccc(CNc2nc(N(CCO)CCO)nc3c2ncn3C(C)C)cc1 [CVT-313] | greater than 80% |

molecular target: Cdk9/cyclinT1 (Homo sapiens, UniProt P50750); assay: Cdk9/cyclinT1 kinase assay (IMAP or Alpha Screen protocol); details: not given
Sequence (P50750 whole entry): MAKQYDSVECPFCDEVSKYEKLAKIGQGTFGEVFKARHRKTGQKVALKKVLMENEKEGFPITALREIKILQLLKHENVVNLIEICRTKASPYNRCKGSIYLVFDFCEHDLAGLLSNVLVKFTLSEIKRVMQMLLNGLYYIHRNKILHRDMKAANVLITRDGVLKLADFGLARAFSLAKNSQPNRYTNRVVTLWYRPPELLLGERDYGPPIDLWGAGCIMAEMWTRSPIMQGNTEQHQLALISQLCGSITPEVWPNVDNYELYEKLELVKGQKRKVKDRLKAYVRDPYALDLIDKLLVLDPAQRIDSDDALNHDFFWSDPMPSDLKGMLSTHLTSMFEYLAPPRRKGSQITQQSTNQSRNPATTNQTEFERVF
Sequence (O60563 whole entry partner): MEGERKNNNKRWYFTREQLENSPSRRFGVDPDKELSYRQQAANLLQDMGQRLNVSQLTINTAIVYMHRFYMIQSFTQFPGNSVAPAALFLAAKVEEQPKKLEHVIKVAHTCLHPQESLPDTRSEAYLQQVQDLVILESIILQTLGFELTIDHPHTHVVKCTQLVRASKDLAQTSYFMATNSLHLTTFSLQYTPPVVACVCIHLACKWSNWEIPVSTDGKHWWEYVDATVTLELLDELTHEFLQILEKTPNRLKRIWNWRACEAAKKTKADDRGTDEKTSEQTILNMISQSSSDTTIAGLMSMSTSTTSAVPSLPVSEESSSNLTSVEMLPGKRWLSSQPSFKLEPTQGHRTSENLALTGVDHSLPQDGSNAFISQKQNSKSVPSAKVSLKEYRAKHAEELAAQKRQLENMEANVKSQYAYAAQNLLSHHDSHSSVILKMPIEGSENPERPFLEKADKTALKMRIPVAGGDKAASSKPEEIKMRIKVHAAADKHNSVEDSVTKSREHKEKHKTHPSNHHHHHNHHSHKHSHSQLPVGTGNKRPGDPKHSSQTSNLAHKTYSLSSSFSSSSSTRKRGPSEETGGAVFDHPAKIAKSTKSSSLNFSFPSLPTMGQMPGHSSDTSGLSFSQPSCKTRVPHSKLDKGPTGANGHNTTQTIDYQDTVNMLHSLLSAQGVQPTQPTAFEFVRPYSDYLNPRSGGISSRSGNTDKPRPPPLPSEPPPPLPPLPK

| IC50 [nM] | Structure (SMILES) |
| --- | --- |
| 2 | CC(C)Oc1ccc(F)cc1-c1cc(NC(=O)[C@@H]2CCCNC2)ncc1Cl [Example 5, (R)-Piperidine-3-carboxylic acid [5-chloro-4-(5-fluoro-2-isopropoxy-phenyl)-pyridin-2-yl]-amide] |
| < 8 | O=C(Nc1cc(-c2ccc(Cl)c(NCC3CCOCC3)c2)c(Cl)cn1)[C@@H]1CCCNC1 [Example 13, (R)—N-(5-Chloro-4-(4-chloro-3-(((tetrahydro-2H-pyran-4-yl)methyl)amino)phenyl)-pyridin-2-yl)piperidine-3-carboxamide] |
| 11 | O=C(Nc1cc(-c2cc(F)cc(NCC3CCOCC3)c2)c(Cl)cn1)[C@H]1CCCNC1 [Example 11, (S)-Piperidine-3-carboxylic acid (5-chloro-4-{3-fluoro-5-[(tetrahydro-pyran-4-ylmethyl)-amino]-phenyl}-pyridin-2-yl)-amide] |
| 10 | O=C(Nc1cc(-c2cccc(F)c2)c(Cl)cn1)[C@@H]1CCCNC1 [Example 2, (R)-Piperidine-3-carboxylic acid [5-chloro-4-(3-fluoro-phenyl)-pyridin-2-yl]-amide] |
| 16 | O=C(Nc1cc(-c2cc(NCC3CCOCC3)ccc2F)c(Cl)cn1)[C@H]1CNCCO1 [Example 15, (R)-Morpholine-2-carboxylic acid (5-chloro-4-{2-fluoro-5-[(tetrahydro-pyran-4-ylmethyl)-amino]-phenyl}-pyridin-2-yl)-amide] |
| < 8 | O=C(Nc1cc(-c2cc(NCC3CCOCC3)ccc2F)c(Cl)cn1)[C@@H]1CCCNC1 [Example 12, (R)-Piperidine-3-carboxylic acid (5-chloro-4-{2-fluoro-5-[(tetrahydro-pyran-4-ylmethyl)-amino]-phenyl}-pyridin-2-yl)-amide] |
| < 8 | O=C(Nc1cc(-c2cc(F)cc(NCC3CCOCC3)c2)c(Cl)cn1)C1CNCCO1 (stereo not shown) [Example 14, Morpholine-2-carboxylic acid (5-chloro-4-{3-fluoro-5-[(tetrahydro-pyran-4-ylmethyl)-amino]-phenyl}-pyridin-2-yl)-amide] |
| 11 | CC(C)(C)OC(=O)N1CCC[C@@H](C(=O)Nc2cc(-c3cc(F)cc(NCC4CCOCC4)c3)c(Cl)cn2)C1 [Example 10, (R)-3-(5-Chloro-4-{3-fluoro-5-[(tetrahydro-pyran-4-ylmethyl)-amino]-phenyl}-pyridin-2-ylcarbamoyl)-piperidine-1-carboxylic acid tert-butyl ester] |

The next lines start with the molecule.

| Structure (SMILES) | IC50 [nM] |
| --- | --- |
| O=C(Nc1cc(-c2cccc(NCC3CCOCC3)c2)c(Cl)cn1)[C@@H]1CCCNC1 [Example 7, (R)—N-(5-chloro-4-(3-(((tetrahydro-2H-pyran-4-yl)methyl)amino)phenyl)pyridin-2-yl)piperidine-3-carboxamide] | < 8 |
| O=C(Nc1cc(-c2cccc(OCc3cccc(F)c3)c2)c(Cl)cn1)[C@@H]1CCCNC1 [Example 6, (R)-Piperidine-3-carboxylic acid {5-chloro-4-[3-(3-fluoro-benzyloxy)-phenyl]-pyridin-2-yl}-amide] | < 8 |
| O=C(Nc1cc(-c2cccc(NCC3CCOCC3)c2)c(Cl)cn1)[C@H]1CCCNC1 [Example 8, (S)-Piperidine-3-carboxylic acid (5-chloro-4-{3-[(tetrahydro-pyran-4-ylmethyl)-amino]-phenyl}-pyridin-2-yl)-amide] | 23 |
| O=C(Nc1cc(-c2cc(F)cc(NCC3CCOCC3)c2)c(Cl)cn1)[C@@H]1CCCNC1 [Example 9, (R)—N-(5-Chloro-4-(3-fluoro-5-(((tetrahydro-2H-pyran-4-yl)-methyl)amino)phenyl)-pyridin-2-yl)piperidine-3-carboxamide] | < 8 |
| O=C(Nc1cc(-c2ccccc2)c(Cl)cn1)[C@@H]1CCCNC1 [Example 1, (R)—N-(5-chloro-4-phenylpyridin-2-yl)piperidine-3-carboxamide] | 20 |
| COc1ccccc1-c1cc(NC(=O)[C@@H]2CCCNC2)ncc1Cl [Example 3, (R)-Piperidine-3-carboxylic acid [5-chloro-4-(2-methoxy-phenyl)-pyridin-2-yl]-amide] | < 8 |
| COc1ccc(F)cc1-c1cc(NC(=O)[C@@H]2CCCNC2)ncc1Cl [Example 4, (R)—N-(5-Chloro-4-(5-fluoro-2-methoxyphenyl)pyridin-2-yl)piperidine-3-carboxamide] | < 8 |
